Patent EP4702986A1, “POLYPEPTIDE AND USE THEREOF” (Biocells (Beijing) Biotech Co., Ltd., priority 2023, dated 2024)
Read-outs that look alike come from different tables or passages of the source. Each block holds one molecule with its values, some of them ahead of it. Numbered stars: 1 amine (or outer) side, 2 acyl side, 3 side chain; on linkers, the order of the positions; unused ones are H or OH. Bridge positions count the residues as written; N and C are the ends. Square brackets hold non-standard residues; d marks the D form. Side chains are listed from the residue outwards. Peptide text beside a SMILES is read from it. * marks the point of attachment. C18 diacid = O=C(O)CCCCCCCCCCCCCCCCC(=O)*; γGlu = O=C(O)[C@H](CCC(=O)[*:2])N[*:1]; Fumaryl(OMe) = COC(=O)/C=C/C(=O)*; Suc = O=C(CCC(=O)[*:2])[*:1]; Orn = NCCC[C@H](N)C(=O)O; Dab = NCC[C@H](N)C(=O)O; AEEA = NCCOCCOCC(=O)O

Molecular target: T1, human ETA receptor (Homo sapiens, UniProt P25101)
T1 construct: expressed in transfected cells; host or cells: 293T-17 cells, transient transfection
T1 sequence (P25101 21-427): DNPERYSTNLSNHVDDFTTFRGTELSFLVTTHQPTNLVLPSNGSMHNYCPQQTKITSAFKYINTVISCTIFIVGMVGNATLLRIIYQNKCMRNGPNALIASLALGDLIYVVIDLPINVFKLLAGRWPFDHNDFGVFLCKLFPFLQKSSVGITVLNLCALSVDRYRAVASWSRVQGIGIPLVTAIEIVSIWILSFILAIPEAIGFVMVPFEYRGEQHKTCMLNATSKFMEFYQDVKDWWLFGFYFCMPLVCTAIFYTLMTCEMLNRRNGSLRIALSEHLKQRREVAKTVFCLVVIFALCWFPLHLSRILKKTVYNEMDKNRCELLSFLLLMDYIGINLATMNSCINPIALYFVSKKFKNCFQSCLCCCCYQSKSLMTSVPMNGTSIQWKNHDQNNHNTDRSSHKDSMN
Test: Selectivity of polypeptides on human ETA receptor (IP-One Gq kit, % of positive control ET1)
Type: cell-based
Details: read-out: hETAR agonist activity, percentage of activity relative to ET1
Protocol: 293T-17 cells were seeded at a density of 650,000 cells per well in a 6-well plate and cultured overnight in an incubator at 37°C and 5% CO2. Afterward, the cells were transfected with an expression vector, PCDNA3.1-hETA which contained a human ETA receptor gene, at a plasmid concentration of 2.5 µg per well. The cells were further cultured for 48 hours, and green fluorescence expression was observed under a fluorescence microscope. The cells were then digested with trypsin and counted. The activity of compounds on the human ETA receptor was determined with the IP-One Gq kit from Cisbio Bioassays. The cells were suspended in Stim Buffer provided in the kit and the cell suspension was added to a 96-well detection plate at 7 µL cell suspension (containing 30,000 cells) per well. The polypeptides to be screened for activity (prepared according to the Preparation Example of the invention) and polypeptide human endothelin ET1 as positive control were dissolved in Stim B to be at a concentration of 2×, and 7 µL was added to the test cells, while 7 µL of PBS solution was added to the cells in the negative control wells. Human endothelin ET1 (ET1: […] (C1-C15,C3-C11)) set forth in SEQ ID No. 85 was used as the positive control polypeptide. The plate was sealed and incubated at 37°C for 1 h in a cell culture incubator. Detection wells, positive control wells, and PBS control wells were each added with 3 µL of IP1 d2 working solution and 3 µL of IP1 Tb cryptotate Antibody working solution. The plate was sealed and incubated in the dark at room temperature (25°C±5°C) for 1 h. The plate seal was removed, and the […] at 665 nm and 620 nm was measured with an ID5 microplate reader. The ratio of the acceptor emission signal to the donor emission signal, i.e., the value of (signal at 665 nm/signal at 620 nm)×10^4, was calculated for each well. With F3 representing the average value of values of signal at 665 nm/signal at 620 nm determined for the test sample at a specific concentration, F5 representing the average value of values of signal at 665 nm/signal at 620 nm determined for the positive control human endothelin ET1 at the same concentration, and T3 representing the average value of values of signal at 665 nm/signal at 620 nm determined for the PBS negative control, the percentage of activity of the test polypeptide sample relative to the positive control sample ET1 = (F3-T3)×100/(F5-T3) (see Table 6). hETA sequence (NCBI accession number L06622.1).

activation at 1 µM: 13.5%
activation at 10 µM (@10µM): 17%
SMILES: CC[C@H](C)[C@H](NC(=O)[C@H](CC(=O)O)NC(=O)[C@H](CC(C)C)NC(=O)[C@H](Cc1c[nH]cn1)NC(=O)[C@H](C)NC(=O)[C@H](Cc1ccccc1)NC(=O)[C@H](Cc1ccc(O)cc1)NC(=O)[C@H](CCCCN)NC(=O)[C@H](C)NC(=O)[C@H](CCC(=O)O)NC(=O)[C@H](CCC(=O)O)NC(=O)[C@H](CC(=O)O)NC(=O)CCC(=O)O)C(=O)N[C@H](C(=O)N[C@@H](Cc1c[nH]c2ccccc12)C(=O)O)[C@@H](C)CC [BX-43] (Suc-DEEAKYFAHLDIIW-OH)

activation at 1 µM: 14.7%
SMILES: CC[C@H](C)[C@H](NC(=O)[C@H](CC(=O)O)NC(=O)[C@H](CCCCN)NC(=O)[C@H](Cc1c[nH]cn1)NC(=O)[C@H](C)NC(=O)[C@H](Cc1ccccc1)NC(=O)[C@H](Cc1ccc(O)cc1)NC(=O)[C@@H](NC(=O)[C@H](CCC(=O)O)NC(=O)[C@H](CCC(=O)O)NC(=O)[C@H](CCC(=O)O)NC(=O)[C@H](CC(=O)O)NC(=O)CCC(=O)O)C(C)C)C(=O)N[C@H](C(=O)N[C@@H](Cc1c[nH]c2ccccc12)C(=O)O)[C@@H](C)CC [BX-45] (Suc-DEEEVYFAHKDIIW-OH)

activation at 0.01 µM (@10nM): -20.9%
activation at 0.1 µM (@100nM): -15.4%
SMILES: CC[C@H](C)[C@H](NC(=O)[C@H](CC(=O)O)NC(=O)[C@H](CC(C)C)NC(=O)[C@H](Cc1c[nH]cn1)NC(=O)[C@H](C)NC(=O)[C@H](Cc1ccccc1)NC(=O)[C@H](Cc1ccc(O)cc1)NC(=O)[C@@H]1CCNC(=O)CC[C@H](NC(=O)[C@H](CC(=O)O)NC(=O)CCC(=O)O)C(=O)N[C@@H](CCC(=O)O)C(=O)N[C@@H](C)C(=O)N1)C(=O)N[C@H](C(=O)N[C@@H](Cc1c[nH]c2ccccc12)C(=O)O)[C@@H](C)CC [BX-49] (Suc-DEEA[Dab]YFAHLDIIW-OH; lactam 2-5)

SMILES: CC[C@H](C)[C@H](NC(=O)[C@H](CC(=O)O)NC(=O)[C@@H]1CCCCNC(=O)CC[C@H](NC(=O)[C@H](CCC(=O)O)NC(=O)[C@H](CCC(=O)O)NC(=O)[C@H](CC(=O)O)NC(=O)CCC(=O)O)C(=O)N[C@@H](C(C)C)C(=O)N[C@@H](Cc2ccc(O)cc2)C(=O)N[C@@H](Cc2ccccc2)C(=O)N[C@@H](C)C(=O)N[C@@H](Cc2c[nH]cn2)C(=O)N1)C(=O)N[C@H](C(=O)N[C@@H](Cc1c[nH]c2ccccc12)C(=O)O)[C@@H](C)CC [BX-50, Suc-DEE cyclo(EVYFAHK)DIIW] (Suc-DEEEVYFAHKDIIW-OH; lactam 4-10)
activation at 0.01 µM: 10.1%
activation at 0.1 µM: -6.92%

SMILES: CC[C@H](C)[C@H](NC(=O)[C@H](CC(=O)O)NC(=O)[C@H](CCCN)NC(=O)[C@H](Cc1c[nH]cn1)NC(=O)[C@H](C)NC(=O)[C@H](Cc1ccccc1)NC(=O)[C@H](Cc1ccc(O)cc1)NC(=O)[C@@H](NC(=O)[C@H](CCC(=O)O)NC(=O)[C@H](CCC(=O)O)NC(=O)[C@H](CCC(=O)O)NC(=O)[C@H](CC(=O)O)NC(=O)CCC(=O)O)C(C)C)C(=O)N[C@H](C(=O)N[C@@H](Cc1c[nH]c2ccccc12)C(=O)O)[C@@H](C)CC [BX-53, Suc-DEEEVYFAHOrnDIIW] (Suc-DEEEVYFAH[Orn]DIIW-OH)
activation at 0.01 µM: -17.6%
activation at 0.1 µM: -17%

activation at 10 µM (@10µM): -18.5%
activation at 100 µM (@100µM): -8.66%
SMILES: CC[C@H](C)[C@H](NC(=O)[C@H](CC(=O)O)NC(=O)[C@H](CCCCNC(=O)COCCOCCNC(=O)COCCOCCNC(=O)CC[C@H](NC(=O)CCCCCCCCCCCCCCCCC(=O)O)C(=O)O)NC(=O)[C@H](Cc1c[nH]cn1)NC(=O)[C@H](C)NC(=O)[C@H](Cc1ccccc1)NC(=O)[C@H](Cc1ccc(O)cc1)NC(=O)[C@@H](NC(=O)[C@H](CCC(=O)O)NC(=O)[C@H](CCC(=O)O)NC(=O)[C@H](CCC(=O)O)NC(=O)[C@H](CC(=O)O)NC(=O)CCC(=O)O)C(C)C)C(=O)N[C@H](C(=O)N[C@@H](Cc1c[nH]c2ccccc12)C(=O)O)[C@@H](C)CC [BX-54] (Suc-DEEEVYFAHK([AEEA-AEEA-γGlu-C18 diacid])DIIW-OH)

activation at 10 µM (@10µM): -5.95%
activation at 100 µM (@100µM): -2.01%
SMILES: CC[C@H](C)[C@H](NC(=O)[C@H](CC(=O)O)NC(=O)[C@H](CCCCN)NC(=O)[C@H](Cc1c[nH]cn1)NC(=O)[C@H](C)NC(=O)[C@H](Cc1ccccc1)NC(=O)[C@H](Cc1ccc(O)cc1)NC(=O)[C@@H](NC(=O)[C@H](CCC(=O)O)NC(=O)[C@H](CCC(=O)O)NC(=O)[C@H](CCC(=O)O)NC(=O)[C@H](CC(=O)O)NC(=O)/C=C/C(=O)OC)C(C)C)C(=O)N[C@H](C(=O)N[C@@H](Cc1c[nH]c2ccccc12)C(=O)O)[C@@H](C)CC [BX-58] ({Fumaryl(OMe)}-DEEEVYFAHKDIIW-OH)

SMILES: CC[C@H](C)[C@H](NC(=O)[C@H](CC(=O)O)NC(=O)[C@H](CCCCNC(=O)CC[C@H](NC(=O)COCCOCCNC(=O)COCCOCCNC(=O)CCCCCCCCCCCCCCCCC(=O)O)C(=O)O)NC(=O)[C@H](Cc1c[nH]cn1)NC(=O)[C@H](C)NC(=O)[C@H](Cc1ccccc1)NC(=O)[C@H](Cc1ccc(O)cc1)NC(=O)[C@@H](NC(=O)[C@H](C)NC(=O)[C@H](CCC(=O)O)NC(=O)[C@H](CCC(=O)O)NC(=O)[C@H](CC(=O)O)NC(=O)CCC(=O)O)C(C)C)C(=O)N[C@H](C(=O)N[C@@H](Cc1c[nH]c2ccccc12)C(=O)O)[C@@H](C)CC [BX-74] (Suc-DEEAVYFAHK([γGlu-AEEA-AEEA-C18 diacid])DIIW-OH)
activation at 10 µM: -2.64%
activation at 100 µM: -13.5%
